Reference: article PMC8557866, “Novel Small Molecule Growth Inhibitor Affecting Bacterial Outer Membrane Reduces Extraintestinal Pathogenic Escherichia coli (ExPEC) Infection in Avian Model” (Microbiology Spectrum, 2021)
Converted amounts (≈) assume the structure as drawn.

What was measured:
APEC [1] = conditions: 10^9 CFU with 2× MBC or 15 passages at 0.75× MIC; cited from earlier work
APEC O78 [2] = assay: Gene expression analysis by RT-qPCR in GI-7-treated APEC; format: cell-based, Escherichia coli; conditions: 4 h treatment, vs untreated APEC
Protocol: We also quantitated the expression of other genes essential for maintaining OM integrity (bamA, mlaA, lolB, and pbgA) ([21]). […] An APEC O78 culture treated with 1% DMSO was used as a control. Total RNA was extracted using the RNeasy minikit (Qiagen), and 5 μg of purified RNA was used to synthesize cDNA using the RT^2 first strand kit (Qiagen). The RT-qPCR was performed using Maxima SYBR green/ROX qPCR master mix (Thermo Fisher) in a RealPlex^2 Mastercycler (Eppendorf) with a 55°C annealing temperature. The primers (Table S3) were designed using the PrimerQuest tool and obtained from Integrated DNA Technologies (IDT). The data were normalized to the housekeeping gene encoding glyceraldehyde-3-phosphate dehydrogenase (GAPDH), and relative fold changes were calculated using the cycle threshold (ΔΔCT) method ([79]). Two independent experiments were conducted.

APEC O78 [3] = system: APEC O78; parameters: method as in PMID 30333507; conditions: cited from earlier work
[4] = system: eukaryotic cells and wax moth larva; parameters: method as in PMID 30333507; conditions: cited from earlier work
APEC serotype O78 = system: APEC serotype O78
Protocol: The efficacy of GIs was assessed using commercial broiler chickens (n = 6/group). […] GI compounds (ChemBridge, San Diego, CA) dissolved in dimethyl sulfoxide (DMSO) were administered orally using a syringe, twice a day, from day 4 (1 day before APEC infection) to day 8 (3 days postinfection [dpi]). The dose of each GI is described in Table S1. […] Chickens that were infected and vehicle-treated (positive control [PC]) and noninfected and nontreated (negative control [NC]) were included as controls. On day 5, chickens were infected subcutaneously (s.c.) with rifampin-resistant (Rif^r) APEC serotype O78 ([18]) (1 × 10^7 CFU/chicken). […] To prepare the APEC inoculum for infection, Rif^r APEC O78 (50 μg/ml rifampin) was grown to logarithmic phase in LB medium, washed twice with phosphate-buffered saline (PBS), and adjusted to an optical density at 600 nm (OD600) of 0.1 (5 × 10^7 CFU/ml). The clinical signs and mortality were recorded until 7 dpi. Chickens that died during this period were necropsied on the same day, lesions in internal organs (liver, heart, lung, and air sacs) were scored as described previously ([63], [71]), and the APEC loads were quantified in internal organs (liver, heart, lung, and kidney) by plating the tissue homogenates on MacConkey agar plates containing 50 μg/ml rifampin ([18]). At 7 dpi (day 12), all live birds were euthanized, lesions were scored, and the APEC loads in internal organs were quantified as described above. The body weight of chickens was measured before GI treatment (day 3) and at the day of necropsy (day 12).

APEC [5] = assay: microbe, parasite or virus in culture; format: cell-based, Escherichia coli
[6] = Quantification of residue in chicken tissues (LC-MS); format: in vivo, chickens
Excerpt: Chickens (n = 5/time point) from an experimental set-up as described above for the floor trial were sacrificed at 2 days (day 13; 2 DPLT), 5 days (day 16; 5 DPLT), and 31 days (day 42; 31 DPLT) post-last treatment. […] Tissue samples from chickens treated with SDM were used for comparison. […] Details of the methods are included in the supplemental material.

APEC [7] = assay: LPS analysis in outer membrane of APEC; format: cell-based, Escherichia coli; conditions: vs untreated APEC; total carbohydrate assay P < 0.0001
Protocol: Extracted LPS (normalized based on the OD600 before extraction) was separated on a 4-to-20% gradient SDS-PAGE gel and stained with Coomassie blue R-250 to visualize the LPS levels ([83]). In addition, LPS was also quantitated using a total carbohydrate assay kit (Cell Biolabs, Inc., San Diego, CA) following the manufacturer’s protocol. Two independent experiments with six replicates in each experiment were performed.

LptE = assay: LptD/E immunoblot analysis; format: cell-based, Escherichia coli; conditions: vs untreated APEC
Protocol: For immunoblot analysis, total membrane proteins (25 μg) resolved by SDS-PAGE under nonreducing (in the absence of β-mercaptoethanol) conditions ([37]) as described above were electrotransferred onto an Immun-Blot polyvinylidene difluoride (PVDF) membrane (Bio-Rad) and probed for LptD or LptE using anti-LptD (1:20,000) and anti-LptE (1:30,000) polyclonal rabbit antibodies (GenScript) and goat anti-rabbit IgG horseradish peroxidase (HRP)-conjugated secondary antibody (Sigma-Aldrich). Anti-LptD and anti-LptE antibodies were generated at GenScript using keyhole limpet hemocyanin (KLH)-conjugated peptides as the antigens (LptD epitope, […], and LptE epitope, […]). The epitopes were selected using the OptimumAntigen design tool (GenScript). The transferred membrane was developed with Clarity Western ECL substrate (Bio-Rad) and visualized in a FluorChem Q imager (ProteinSimple).

Structure (SMILES): COc1ccc(CNCc2cccc(C(F)(F)F)c2)cc1OCC(O)CN1CCCC1 (stereo not shown) [GI-7]
- Resistance in vitro (APEC [1]): no resistance
- Downregulation of lptD gene expression (APEC O78 [2]; ~50% growth inhibition): 12.90 fold
- Downregulation of bamA gene expression (APEC O78 [2]): 7.72 fold
- Downregulation of lolB gene expression (APEC O78 [2]): 1.92 fold
- Downregulation of lptA gene expression (APEC O78 [2]): 5.13 fold
- Downregulation of lptC gene expression (APEC O78 [2]): 4.99 fold
- Downregulation of lptE gene expression (APEC O78 [2]): 5.39 fold
- Downregulation of mlaA gene expression (APEC O78 [2]): 9.94 fold
- Downregulation of pbgA gene expression (APEC O78 [2]): 5.75 fold
- MIC (APEC O78 [3]): 25 µM (≈ 11 µg/mL)
- Toxicity to eukaryotic cells and wax moth larva [4]: minimally toxic
- Mean APEC load, Heart (APEC serotype O78; efficacy trial, oral): 2.7 Log CFU/g tissues
- Mean APEC load, Kidney (APEC serotype O78; efficacy trial, oral): 2.3 Log CFU/g tissues
- Mean APEC load, Liver (APEC serotype O78; efficacy trial, oral): 2.1 Log CFU/g tissues
- Mean APEC load, Lung (APEC serotype O78; efficacy trial, oral): 2.7 Log CFU/g tissues
- Mean lesion score in Air sacs (APEC serotype O78; efficacy trial, oral): 0.7
- Mean lesion score in Heart (APEC serotype O78; efficacy trial, oral): 0.8
- Mean lesion score in Liver (APEC serotype O78; efficacy trial, oral): 0.7
- Mean lesion score in Lung (APEC serotype O78; efficacy trial, oral): 0.2
- Survival of chickens (APEC serotype O78; efficacy trial, oral, P ≤ 0.1, log rank test): prolonged the survival
- Cumulative lesion score (APEC serotype O78; efficacy trial, oral, PC 6.2): 2.3
- Mortality reduction compared to PC group (APEC serotype O78; efficacy trial, oral, PC mortality 58.3%): 41.7%
- % reduction in severity, Air sacs lesions (APEC serotype O78; efficacy trial, oral, vs PC): 52.9%
- % reduction in severity, Heart lesions (APEC serotype O78; efficacy trial, oral, vs PC): 60%
- % reduction in severity, Liver lesions (APEC serotype O78; efficacy trial, oral, vs PC): 60%
- % reduction in severity, Lung lesions (APEC serotype O78; efficacy trial, oral, vs PC): 83.3%
- log reduction in APEC load, Heart (APEC serotype O78; efficacy trial, oral, vs PC): 2.3 Log CFU/g tissues
- log reduction in APEC load, Kidney (APEC serotype O78; efficacy trial, oral, vs PC): 3.2 Log CFU/g tissues
- log reduction in APEC load, Liver (APEC serotype O78; efficacy trial, oral, vs PC): 2.5 Log CFU/g tissues
- log reduction in APEC load, Lung (APEC serotype O78; efficacy trial, oral, vs PC): 2.4 Log CFU/g tissues
- BWG (body weight gain) (APEC serotype O78; in vivo): 261.3±20.4
- Resistance in vivo (APEC [5]; APEC isolated from chickens treated with GI-7): no in vivo resistance
- MBC (APEC [5]; Escherichia coli): 50 µM (≈ 21.9 µg/mL)
- MIC (APEC [5]; Escherichia coli): 25 µM (≈ 11 µg/mL)
- Residue concentration in muscle ([6]; 2 DPLT): 0.04 ± 0.03 ppm/g tissue
- Residue level in kidney ([6]; 2 DPLT): 0.7 ± 0.6 ppm/g tissue
- Residue level in liver ([6]; 2 DPLT): 0.5 ± 0.4 ppm/g tissue
- Residue concentration in muscle ([6]; 5 DPLT): 0.01 ± 0.01 ppm/g tissue
- Residue level in kidney ([6]; 5 DPLT): 0.3 ± 0.3 ppm/g tissue
- Residue level in liver ([6]; 5 DPLT): 0.2 ± 0.2 ppm/g tissue
- Residue concentration in muscle ([6]; 31 DPLT): 0.0 ± 0.0 ppm/g tissue
- Residue level in kidney ([6]; 31 DPLT): 0.0 ± 0.0 ppm/g tissue
- Residue level in liver ([6]; 31 DPLT): 0.0 ± 0.0 ppm/g tissue
- Residues in tissues relative to FDA limits for antibiotics ([6]; in vivo): below the limits permitted by the Food and Drug Administration
- LPS level in OM of APEC (APEC [7]): lower level of LPS
- LptE level (immunoblot) (LptE): decreased the LptE level
